Laboratory results reported in patent publication US12029744B2, “Bicyclic heteroaryl derivatives as ectonucleotide pyrophosphatase phosphodiesterase 1 inhibitors” (Riboscience LLC, priority 2019, dated 2024).
Counter-ions that a name gives are not always drawn. Like-named read-outs stand apart in the source and are kept apart here.

Biological target: T1, ENPP1 (Homo sapiens, UniProt P22413)
T1 sequence (P22413 1-925): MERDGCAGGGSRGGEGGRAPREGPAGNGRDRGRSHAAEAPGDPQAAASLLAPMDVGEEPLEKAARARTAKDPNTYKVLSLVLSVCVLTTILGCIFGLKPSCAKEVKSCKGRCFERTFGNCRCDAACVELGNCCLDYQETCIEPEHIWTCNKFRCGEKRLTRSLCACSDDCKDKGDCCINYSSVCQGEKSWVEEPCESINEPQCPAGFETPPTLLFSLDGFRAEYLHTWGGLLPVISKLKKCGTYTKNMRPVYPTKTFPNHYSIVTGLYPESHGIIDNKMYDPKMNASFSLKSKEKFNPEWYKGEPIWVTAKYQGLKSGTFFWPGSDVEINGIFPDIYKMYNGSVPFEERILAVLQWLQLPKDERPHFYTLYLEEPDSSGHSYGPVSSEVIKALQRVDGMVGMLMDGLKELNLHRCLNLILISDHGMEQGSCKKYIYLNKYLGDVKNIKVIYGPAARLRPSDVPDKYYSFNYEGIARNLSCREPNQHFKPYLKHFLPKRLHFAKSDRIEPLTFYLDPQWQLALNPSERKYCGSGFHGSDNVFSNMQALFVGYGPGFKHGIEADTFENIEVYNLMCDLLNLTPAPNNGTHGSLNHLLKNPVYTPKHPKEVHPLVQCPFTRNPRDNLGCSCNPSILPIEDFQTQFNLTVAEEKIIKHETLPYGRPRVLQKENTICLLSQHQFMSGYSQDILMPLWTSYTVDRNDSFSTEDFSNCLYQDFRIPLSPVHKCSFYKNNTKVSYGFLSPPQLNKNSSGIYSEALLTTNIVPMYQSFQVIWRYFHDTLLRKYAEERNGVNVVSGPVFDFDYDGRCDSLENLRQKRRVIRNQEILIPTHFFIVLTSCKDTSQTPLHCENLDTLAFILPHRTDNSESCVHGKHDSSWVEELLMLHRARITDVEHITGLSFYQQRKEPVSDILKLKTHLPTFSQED
Experiment: Measurement of pNP-TMP hydrolysis by ENPP1 (enzyme activity assay, absorbance at 405 nm)
Format: biochemical
Experimental: Measurement of pNP-TMP Hydrolysis by ENPP1
p-Nitrophenyl thymidine 5′-monophosphate (pNP-TMP) is a synthesized substrate for ENPP1. The ENPP1 enzyme activity assay with pNP-TMP substrate was conducted as follows:
Incubation of ENPP1 with compounds was set at 25° C. for 10 min. […] For each compound dilution, wells with assay buffer (50 mM Tris-HCl, pH8.8, 250 mM NaCl, 0.1 mg/ml BSA, 1% DMSO) only but no ENPP1 were included as controls for subtraction of test compound derived absorbance at 405 nm.
Absorbance at 405 nm was recorded immediately in kinetic mode by PerkinElmer 2300 Enspire multimode plate reader.
For each inhibitor, the specific ENPP1 activity was calculated using the following equation: ENPP1 activity (pmol/min/μg)=Adjusted Vmax (OD405 nm/min)×conversion factor (pmol/OD405 nm)/amount of enzyme (μg)
Adjusted Vmax=V0×(Km+(S))/(S).
V0=(OD405 nm with ENPP1−OD405 nm ENPP1 blank)/minutes. OD405 nm was plotted, with blank subtracted, against time (minutes), the initial linear rate is V0. […]
The slope is the conversion factor. The percent ENPP1 activity for each sample was calculated using the following equation: % enzyme activity=sample enzyme activity/MAX Activity×100%.
To determine the IC50 for each compound, compound concentration values and percent enzyme activity values were inserted into GraphPad Prism (GraphPad Prism version 7.0 for Windows, GraphPad Software, La Jolla California USA, www.graphpad.com), and Prism's Transform analysis was used to convert the x-axis values (compound concentration) to logarithms. A sigmoidal variable slope nonlinear regression analysis was performed using the following equation: Y=Bottom+(Top−Bottom)/(1+10^[…])).

[1] = substrate pNP-TMP 500 μM, KM 232 μM, Ki from IC50 by Cheng-Prusoff, read-out: Ki (pNP-TMP)

Row | Ki [1] [nM] | Ki [nM] | SMILES
1 | < 10 |  | CCc1cc2c(O)nccc2n1Cc1ccc(B(O)O)cc1 [Compound 106, 4-((2-ethyl-4-hydroxypyrrolo[3,2-c]pyridin-1-yl)methyl)phenylboronic acid]
2 | < 1000 |  | O=c1[nH]cnc2c1ncn2Cc1ccc(B(O)O)cc1 [Compound 3, 4-((6-oxo-1H-purin-9-yl)methyl)phenylboronic acid]
3 | < 10 |  | Cc1cc2nc(C(N)=O)ccc2n1Cc1ccc(B(O)O)cc1 [Compound 77, 4-((5-carbamoyl-2-methylpyrrolo[3,2-b]pyridin-1-yl)methyl) phenylboronic acid]
4 | < 10 |  | COc1ccc2c(ncn2Cc2ccc(B(O)O)cc2)n1 [Compound 125, 4-((5-methoxyimidazo[4,5-b]pyridin-1-yl)methyl)phenylboronic acid]
5 | < 100 |  | O=c1[nH]cnc2c1c(F)cn2Cc1ccc(P(=O)(O)O)cc1 [Compound 134, 4-((5-fluoro-4-oxo-3H-pyrrolo[2,3-d]pyrimidin-7-yl)methyl)phenylphosphonic acid]
6 | < 100 |  | NC(=O)c1ccc2c(ncn2Cc2ccc(B(O)O)cc2)c1N [Compound 105, 4-((4-amino-5-carbamoyl-1,3-benzodiazol-1-yl)methyl)phenylboronic acid]
7 | < 10 |  | CC(C)c1nc2nc(C(N)=O)ccc2n1Cc1ccc(B(O)O)cc1 [Compound 146, 4-((5-carbamoyl-2-isopropylimidazo[4,5-b]pyridin-1-yl)methyl)phenylboronic acid]
8 | < 100 |  | NC(=O)c1ccc2c(cnn2Cc2ccc(P(=O)(O)O)cc2)c1 [Compound 65, 4-((5-carbamoylindazol-1-yl)methyl) phenylphosphonic acid]
9 | < 1000 |  | OB(O)c1ccc(Cn2cnc3c(C(F)F)cccc32)cc1 [Compound 130, 4-((4-(difluoromethyl)-1,3-benzodiazol-1-yl)methyl)phenylboronic acid]
10 | < 100 |  | CC(C)c1cc2c(O)nccc2n1Cc1ccc(B(O)O)cc1 [Compound 107, 4-((4-hydroxy-2-isopropylpyrrolo[3,2-c]pyridin-1-yl)methyl)phenylboronic acid]
11 | < 100 |  | O=P(O)(O)c1ccc(Cn2cnc3nc(O)ccc32)cc1 [Compound 150, 4-((5-hydroxyimidazo[4,5-b]pyridin-1-yl)methyl)phenylphosphonic acid]
12 | < 10 |  | N#Cc1ccc2c(c1)ncn2Cc1ccc(B(O)O)cc1 [Compound 15, 4-((5-cyano-1,3-benzodiazol-1-yl)methyl)phenylboronic acid]
13 | < 100 |  | Nc1nc2c(ncn2Cc2ccc(B(O)O)cc2)c(=O)[nH]1 [Compound 5, 4-((2-amino-6-oxo-1H-purin-9-yl)methyl)phenylboronic acid]
14 | < 100 |  | COc1cc2c(cc1C(N)=O)ncn2Cc1ccc(B(O)O)cc1 [Compound 32, 4-((5-carbamoyl-6-methoxy-1,3-benzodiazol-1-yl)methyl)phenylboronic acid]
15 | < 100 |  | O=P(O)(O)c1ccc(Cn2ncc3c(O)nccc32)cc1 [Compound 64, 4-((4-hydroxypyrazolo[4,3-c]pyridin-1-yl)methyl)phenylphosphonic acid]
16 | < 10 |  | OB(O)c1ccc(Cn2cnc3nc(O)ccc32)cc1 [Compound 127]
17 | < 1000 |  | NC(=O)c1ccc2c(ccn2Cc2ccc(P(=O)(O)O)cc2)c1 [Compound 142, 4-((5-carbamoylindol-1-yl)methyl)phenylphosphonic acid]
18 | < 10 |  | NC(=O)c1ccc2c(ncn2Cc2ccc(B(O)O)cc2)n1 [Compound 59, 4-((5-carbamoylimidazo[4,5-b]pyridin-1-yl)methyl)phenylboronic acid]
19 | < 100 |  | NC(=O)c1ccc2c(cnn2Cc2ccc(B(O)O)cc2)c1 [Compound 34, 4-((5-carbamoylindazol-1-yl)methyl)phenylboronic acid]

Row | Ki [1] [nM] | Ki [nM] | SMILES
20 | < 10 |  | Cc1nc2nc(C(N)=O)ccc2n1Cc1ccc(B(O)O)cc1 [Compound 144, (4-((5-carbamoyl-2-methyl-1H-imidazo[4,5-b]pyridin-1-yl)methyl)phenyl)boronic acid]
21 | < 100 |  | CC(C)c1nc2c(O)nccc2n1Cc1ccc(B(O)O)cc1 [Compound 75, 4-((4-hydroxy-2-isopropylimidazo[4,5-c]pyridin-1-yl)methyl) phenylboronic acid]
22 | < 1000 |  | CCc1nc2ccnc(O)c2n1Cc1ccc(B(O)O)cc1 [Compound 74, 4-((2-ethyl-4-hydroxyimidazo[4,5-c]pyridin-3-yl)methyl)phenylboronic acid]
23 | < 10 |  | CC(C)c1nc2cc(C(N)=O)ccc2n1Cc1ccc(B(O)O)cc1 [Compound 37, 4-((5-carbamoyl-2-isopropyl-1,3-benzodiazol-1-yl)methyl)phenylboronic acid]
24 | < 100 |  | COc1cc2ncn(Cc3ccc(B(O)O)cc3)c2cc1OC [Compound 1, 4-((5,6-dimethoxy-1,3-benzodiazol-1-yl)methyl)phenylboronic acid]
25 | < 10 |  | NC(=O)c1nccc2c1ncn2Cc1ccc(B(O)O)cc1 [Compound 96, 4-((4-carbamoylimidazo[4,5-c]pyridin-1-yl)methyl)phenylboronic acid]
26 | < 100 |  | O=P(O)(O)c1ccc(Cn2ccc3c(O)nccc32)cc1 [Compound 56, (4-((4-hydroxy-1H-pyrrolo[3,2-c]pyridin-1-yl)methyl)phenyl)phosphonic acid]
27 | < 1000 |  | NC(=O)c1ccc2c(c1)ncn2Cc1ccc(P(=O)(O)O)cc1 [Compound 49, 4-((5-carbamoyl-1,3-benzodiazol-1-yl)methyl)phenylphosphonic acid]
28 |  | < 100 | NC(=O)c1ccc2c(ncn2Cc2ccc(P(=O)(O)O)cc2)n1 [Compound 138, 4-((5-carbamoylimidazo[4,5-b]pyridin-1-yl)methyl)phenylphosphonic acid]
29 | < 1000 |  | N#Cc1ccc2c(c1)ncn2Cc1ccc(P(=O)(O)O)cc1 [Compound 24, (4-((5-cyano-1H-benzo[d]imidazol-1-yl)methyl)phenyl)phosphonic acid]
30 | < 100 |  | CCc1nc2c(O)nccc2n1Cc1ccc(B(O)O)cc1 [Compound 73, 4-((2-ethyl-4-hydroxyimidazo [4,5-c]pyridin-1-yl)methyl) phenylboronic acid]
31 | < 1000 |  | COc1nccc2c1cnn2Cc1ccc(B(O)O)cc1 [Compound 98, 4-((4-methoxypyrazolo [4,3-c]pyridin-1-yl)methyl) phenylboronic acid]
32 | < 100 |  | COc1cccc2c1nc(C)n2Cc1ccc(B(O)O)cc1 [Compound 95, 4-((4-methoxy-2-methyl-1,3-benzodiazol-1-yl)methyl) phenylboronic acid]
33 | < 10 |  | Cc1nc2cc(C(N)=O)ccc2n1Cc1ccc(B(O)O)cc1 [Compound 36, (4-((5-carbamoyl-2-methyl-1H-benzo[d]imidazol-1-yl)methyl)phenyl)boronic acid]
34 | < 100 |  | O=c1[nH]cnc2c1c(F)cn2Cc1ccc(B(O)O)cc1 [Compound 63, (4-((5-fluoro-4-oxo-3,4-dihydro-7H-pyrrolo[2,3-d]pyrimidin-7-yl)methyl)phenyl) boronic acid]
35 | < 1000 |  | NC(=O)c1ccc2c(c1)c(Cl)cn2Cc1ccc(P(=O)(O)O)cc1 [Compound 143, 4-((5-carbamoyl-3-chloroindol-1-yl)methyl)phenylphosphonic acid]
36 | < 10 |  | N#Cc1ccc2c(ncn2Cc2ccc(B(O)O)cc2)n1 [Compound 70, 4-((5-cyanoimidazo[4,5-b]pyridin-1-yl)methyl)phenylboronic acid]
37 | < 10 |  | NC(=O)c1ccc2c(c1)ncn2Cc1ccc(B(O)O)cc1 [Compound 17, 4-((5-carbamoyl-1,3-benzodiazol-1-yl)methyl)phenylboronic acid trifluoroacetic acid salt]
